Reference: ChEMBL document CHEMBL1155768, “Dexamethasone as adjuvant therapy to moxifloxacin attenuates valve destruction in experimental aortic valve endocarditis due to Staphylococcus aureus” (Antimicrob Agents Chemother, 2007)
In brackets after ≈: the same amount, converted by molar mass. Activity calls are given as the source filed them. No cut-off for these calls is given here.

Experiments:
[1] = tested on: Staphylococcus aureus; experiment: Antibacterial activity against Staphylococcus aureus by manual microdilution technique; type: functional
[2] = tested on: Staphylococcus aureus; experiment: Antibacterial activity against Staphylococcus aureus at 0.5 mg/liter by time kill assay; type: functional
[3] = tested on: Staphylococcus aureus; experiment: Antibacterial activity against Staphylococcus aureus by Etest; type: functional
[4] = tested on: Staphylococcus aureus; experiment: Antibacterial activity against Staphylococcus aureus infection-induced aortic valve endocarditis in rabbit assessed as number of survival days at 20 mg/kg, iv administered every 12 hrs for 5 days; type: functional, Aorta
[5] = tested on: Staphylococcus aureus; experiment: Antibacterial activity against Staphylococcus aureus infection-induced aortic valve endocarditis in rabbit assessed as cured animals in blood culture at 20 mg/kg, iv administered every 12 hrs for 5 days sacrificed 12 hrs after end of treatment; type: functional, organism-based; design: dose 20 mg/kg
[6] = tested on: Staphylococcus aureus; experiment: Antibacterial activity against Staphylococcus aureus infection-induced aortic valve endocarditis in rabbit assessed as reduction in bacterial burdens in blood culture at 20 mg/kg, iv administered every 12 hrs for 5 days sacrificed 12 hrs after end of treatment; type: functional
[7] = tested on: Staphylococcus aureus; experiment: Antibacterial activity against Staphylococcus aureus infection-induced aortic valve endocarditis in rabbit assessed as cured animals in blood culture at 20 mg/kg, iv administered every 12 hrs for 5 days sacrificed 12 days after last dose; type: functional, organism-based; design: dose 20 mg/kg
[8] = tested on: Staphylococcus aureus; experiment: Antibacterial activity against Staphylococcus aureus infection-induced aortic valve endocarditis in rabbit assessed as reduction in bacterial burdens in blood culture at 20 mg/kg, iv administered every 12 hrs for 5 days sacrificed 12 days after last dose; type: functional
[9] = tested on: Staphylococcus aureus; experiment: Antibacterial activity against Staphylococcus aureus infection-induced aortic valve endocarditis in rabbit assessed as reduction in bacterial burdens in heart valve tissue culture at 20 mg/kg, iv administered every 12 hrs for 5 days sacrificed 12 hrs after end of treatment; type: functional, Aorta
[10] = tested on: Staphylococcus aureus; experiment: Antibacterial activity against Staphylococcus aureus infection-induced aortic valve endocarditis in rabbit assessed as reduction in bacterial burdens in heart valve tissue culture at 20 mg/kg, iv administered every 12 hrs for 5 days sacrificed 12 days after last dose; type: functional, Aorta
[11] = Concentration in Staphylococcus aureus infection-induced aortic valve endocarditis rabbit serum at 20 mg/kg, iv administered every 12 hrs measured 30 mins after third dose; type: ADME, organism-based, Oryctolagus cuniculus; design: dose 20 mg/kg, route intravenous; settings: read-out: Drug uptake
[12] = Concentration in Staphylococcus aureus infection-induced aortic valve endocarditis rabbit serum at 20 mg/kg, iv administered every 12 hrs measured 12 hrs after third dose; type: ADME, organism-based, Oryctolagus cuniculus; design: dose 20 mg/kg, route intravenous; settings: read-out: Drug uptake
[13] = AUC (0 to 12 hrs) in Staphylococcus aureus infection-induced aortic valve endocarditis rabbit at 20 mg/kg, iv administered every 12 hrs measured after third dose; type: ADME, organism-based, Oryctolagus cuniculus; design: time < 12 hr, dose 20 mg/kg, route intravenous; settings: plasma
[14] = AUC (0 to 12 hrs) in Staphylococcus aureus infection-induced aortic valve endocarditis rabbit at 20 mg/kg, iv administered every 12 hrs measured after seventh dose; type: ADME, organism-based, Oryctolagus cuniculus; design: time < 12 hr, dose 20 mg/kg, route intravenous; settings: plasma
[15] = Concentration in Staphylococcus aureus infection-induced aortic valve endocarditis rabbit serum at 20 mg/kg, iv administered every 12 hrs measured 30 mins after seventh dose in presence of Dexamethasone; type: ADME, organism-based, Oryctolagus cuniculus; design: dose 20 mg/kg, route intravenous; settings: read-out: Drug uptake
[16] = Concentration in Staphylococcus aureus infection-induced aortic valve endocarditis rabbit serum at 20 mg/kg, iv administered every 12 hrs measured 12hrs after seventh dose in presence of Dexamethasone; type: ADME, organism-based, Oryctolagus cuniculus; design: dose 20 mg/kg, route intravenous; settings: read-out: Drug uptake
[17] = AUC (0 to 12 hrs) in Staphylococcus aureus infection-induced aortic valve endocarditis rabbit at 20 mg/kg, iv administered every 12 hrs measured after seventh dose in presence of Dexamethasone; type: ADME, organism-based, Oryctolagus cuniculus; design: time < 12 hr, dose 20 mg/kg, route intravenous; settings: plasma
[18] = tested on: Staphylococcus aureus; experiment: Cardiovascular activity in Staphylococcus aureus infection-induced aortic valve endocarditis rabbit assessed as increase in fractional shortening at 20 mg/kg, iv administered every 12 hrs for 5 days […]; type: functional, organism-based; design: dose 20 mg/kg
[19] = tested on: Oryctolagus cuniculus; experiment: Toxicity in Staphylococcus aureus infection-induced aortic valve endocarditis rabbit assessed as tissue valve damage median score at 20 mg/kg, iv administered every 12 hrs for 5 days sacrificed 12 days after last dose by histopathology; type: organism-based; design: dose 20 mg/kg, route intravenous; settings: in vivo
[20] = tested on: Oryctolagus cuniculus; experiment: Toxicity in Staphylococcus aureus infection-induced aortic valve endocarditis rabbit assessed as inflammatory cell infiltration median score at 20 mg/kg, iv administered every 12 hrs for 5 days sacrificed 12 days after last dose by histopathology; type: organism-based; design: dose 20 mg/kg, route intravenous; settings: in vivo, 288 h
[21] = tested on: Oryctolagus cuniculus; experiment: Toxicity in Staphylococcus aureus infection-induced aortic valve endocarditis rabbit assessed as collagenization median score at 20 mg/kg, iv administered every 12 hrs for 5 days sacrificed 12 days after last dose by histopathology; type: organism-based; design: dose 20 mg/kg, route intravenous; settings: in vivo, 288 h
[22] = tested on: Oryctolagus cuniculus; experiment: Toxicity in Staphylococcus aureus infection-induced aortic valve endocarditis rabbit assessed as fibrous content median score at 20 mg/kg, iv administered every 12 hrs for 5 days sacrificed 12 days after last dose by histopathology; type: organism-based; design: dose 20 mg/kg, route intravenous; settings: in vivo, 288 h
[23] = tested on: Oryctolagus cuniculus; experiment: Toxicity in Staphylococcus aureus infection-induced aortic valve endocarditis rabbit assessed as calcification median score at 20 mg/kg, iv administered every 12 hrs for 5 days sacrificed 12 days after last dose by histopathology; type: organism-based; design: dose 20 mg/kg, route intravenous; settings: in vivo, 288 h
[24] = Drug level in Staphylococcus aureus infection-induced aortic valve endocarditis rabbit serum at 20 mg/kg, iv administered every 12 hrs measured 30 mins after seventh dose; type: ADME, organism-based, Oryctolagus cuniculus; design: dose 20 mg/kg, route intravenous; settings: read-out: Drug uptake
[25] = Drug level in Staphylococcus aureus infection-induced aortic valve endocarditis rabbit serum at 20 mg/kg, iv administered every 12 hrs measured 12 hrs after seventh dose; type: ADME, organism-based, Oryctolagus cuniculus; design: dose 20 mg/kg, route intravenous; settings: read-out: Drug uptake

CC1(C)S[C@@H]2[C@H](NC(=O)[C@H](N)c3ccc(O)cc3)C(=O)N2[C@H]1C(=O)O [AMOXICILLIN]
MBC [1]: 4 mg/L (≈ 10.9 µM) | MIC [1]: 2 mg/L (≈ 5.47 µM)

COc1c(N2C[C@@H]3CCCN[C@@H]3C2)c(F)cc2c(=O)c(C(=O)O)cn(C3CC3)c12 [MOXIFLOXACIN]
MBC [1]: 0.125 mg/L (≈ 0.311 µM) | MIC [1]: 0.125 mg/L (≈ 0.311 µM) | log10CFU/ml [2]: >3 | MIC [3]: 0.064 mg/L (≈ 0.159 µM) | Survival [4]: 15.3 days | Activity [5]: Active | log10CFU/ml [6]: 2.83 | Activity [7]: Active | log10CFU/ml [8]: 2.76 log10 CFU/ml | log10CFU/g [9]: 2.1 | log10CFU/g [10]: 2.2 | concentration at 0.5 h [11]: 3.73 µg/mL | concentration at 12 h [12]: 0.23 µg/mL | AUC at 12 h [13]: 16.5 µg·h/mL | AUC at 12 h [14]: 22.2 µg·h/mL | concentration at 0.5 h [15]: 3.33 µg/mL | concentration at 12 h [16]: 1 µg/mL | AUC at 12 h [17]: 23.9 µg·h/mL | Activity [18]: Active | Activity [19]: 2.3 | Activity [20]: 1.2 | Activity [21]: 2 | Activity [22]: 1.6 | Activity [23]: 1.6 | concentration at 0.5 h [24]: 4.39 µg/mL | concentration at 12 h [25]: 0.51 µg/mL

Cc1onc(-c2ccccc2)c1C(=O)N[C@@H]1C(=O)N2[C@@H]1SC(C)(C)[C@@H]2C(=O)O [OXACILLIN]
MBC [1]: 0.5 mg/L (≈ 1.25 µM) | MIC [1]: ≤ 0.25 mg/L
